Data on 3 compounds can be found in patent publication US20220040122A1, “COMPOSITION FOR ALLERGY PREVENTION, ATOPIC DERMATITIS ALLEVIATION OR SKIN REGENERATION, CONTAINING, AS ACTIVE INGREDIENT, UNDECANE OR UNDECANAL” (BOTANICSENS, priority 2019, published 2022).

The structures appear in SMILES notation. Entries after “also recorded” stand apart in the source; their conditions may differ.

In data set [1] the test system is Mast cells (rat basophilic leukemia cell line, RBL-2H3). Briefly: Inflammatory cytokine expression (real-time PCR) in anti-DNP-IgE/DNP-HSA-stimulated mast cells. The class given is cell-based. To be noted: 1 h before DNP-HSA induction, vs immune-response-induced control. How it is done: Then, it was sensitized with anti-DNP (dinitrophenyl)-IgE (30 ng/ml) and cultured for 24 hours at 37° C., 5% CO2 in an incubator. After washing twice with PBS (phosphate buffered saline), DNP-HSA (dinitrophenylated human serum albumin; 10 μg/ml) was treated for 4 hours to induce an immune response. In addition, in order to evaluate atopy alleviating effect by undecane, mast cells treated with anti-DNP (dinitrophenyl)-IgE and cultured for 24 hours were treated with 100 μM of undecane, cultured for 1 hour, and then an immune response was induced with DNP-HSA. Normal cells were treated with DMSO instead of undecane under the same conditions as undecane-treated cells, and positive control cells were treated with 10 μM of tacrolimus instead of undecane and cultured for 1 hour, and then, an immune response was induced with DNP-HSA.
After removing the supernatant of the mast cells that induced the immune response, 1 ml of trizol was added, left for 2 minutes, and chloroform was added, vortexed for 10 seconds, centrifuged at 5,000 rpm for 10 minutes, and the upper layer was taken, and mixed with the same amount of isopropanol and shaken. The supernatant was removed by centrifugation at 13,000 rpm for 25 minutes, and the pellet was dissolved in 20 μl of diethyl pyrocarbonate (DEPC)-DW and stored at −20° C. and then used in the experiment. RT-PCR was performed using a one-step RT-PCR PreMixkit (iNtRON Biotechnology, Korea) at 45° C. for 30 minutes and at 94° C. for 5 minutes, followed by denaturation at 94° C. for 30 seconds, and then after annealing at 55° C. for 30 seconds, the cycle of extension at 72° C. for 1 minute was repeated 32 times, and the last extension was performed at 72° C. for 5 minutes, and PiQ SYBR green supermix (Bio-Rad) and CFX Connect™ Real-Time PCR Detection System (Bio-Rad) was used to perform quantitative PCR, and the primer sequences used are as shown in Table 1. […]
Then, it was sensitized with anti-DNP (dinitrophenyl)-IgE (30 ng/ml) and cultured for 24 hours at 37° C., 5% CO2 in an incubator. After washing twice with PBS (phosphate buffered saline), DNP-HSA (dinitrophenylated human serum albumin; 10 μg/ml) was treated for 4 hours to induce an immune response. In addition, in order to evaluate an effect of alleviating atopy by undecanal, mast cells treated with anti-DNP (dinitrophenyl)-IgE and cultured for 24 hours were treated with 100 μM of undecanal, cultured for 1 hour, and then an immune response was induced with DNP-HSA. Normal cells were treated with DMSO instead of undecanal under the same conditions as undecanal-treated cells, and positive control cells were treated with 10 μM of tacrolimus instead of undecanal and cultured for 1 hour, and then, an immune response was induced with DNP-HSA. […]

For data set [2], the system named is Keratinocytes (human keratinocyte cell line, HaCaT). Nature of the data set: Inflammatory cytokine expression (real-time PCR) in TNF-α/IFN-γ-stimulated keratinocytes. The class given is cell-based. To be noted: 24 h, vs immune-response-induced control. Here is the method: (§1) Keratinocytes (human keratinocyte cell line, HaCaT) were purchased from ATCC (Manassas, Va., USA) and used. For cell culture, the culture medium of DMEM containing 10% fetal bovine serum (FBS) and antibiotics was used. The culture vessel used a 75T-flask and a 6-well plate, and cultured in a 37° C. incubator supplied with 5% CO2. The culture medium was changed every 3 to 4 days, and subculture was performed when the cells were excessively proliferated. The dispensed HaCaT cells (5×10^5/well) were cultured for 24 hours and then washed with PBS. In order to induce an immune response to keratinocytes, TNF-α (tumor necrosis factor-α) (10 ng/ml) and IFN-γ (interferon gamma) (10 ng/ml) were treated together in DMEM medium without FBS and incubated for 24 hours. At this time, in order to evaluate the efficacy of alleviating the immune response of undecane, 100 μM of undecane was simultaneously treated, and in the case of normal cells, DMSO instead of undecane, and in the case of positive control cells, 10 μM of tacrolimus instead of undecane were treated simultaneously with the immune response inducer and incubated for 24 hours.
After removing the supernatant of the mast cells that induced the immune response, 1 ml of trizol was added, left for 2 minutes, and chloroform was added, vortexed for 10 seconds, centrifuged at 5,000 rpm for 10 minutes, and the upper layer was taken, and mixed with the same amount of isopropanol and shaken. The supernatant was removed by centrifugation at 13,000 rpm for 25 minutes, and the pellet was dissolved in 20 μl of diethyl pyrocarbonate (DEPC)-DW and stored at −20° C. and then used in the experiment. RT-PCR was performed using a one-step RT-PCR PreMixkit (iNtRON Biotechnology, Korea) at 45° C. for 30 minutes and at 94° C. for 5 minutes, followed by denaturation at 94° C. for 30 seconds, and then after annealing at 55° C. for 30 seconds, the cycle of extension at 72° C. for 1 minute was repeated 32 times, and the last extension was performed at 72° C. for 5 minutes, and PiQ SYBR green supermix (Bio-Rad) and CFX Connect™ Real-Time PCR Detection System (Bio-Rad) was used to perform quantitative PCR, and the primer sequences used are as shown in Table 1.
as §1, with “undecanal,” for “undecane,”, “undecanal” for “undecane”
RNA isolation and real-time PCR (quantitative reverse-transcription polymerase chain reaction) using a Trizol method was performed by the same method as 3) RNA isolation using the Trizol method and real-time PCR of 1-1. of Example 1 described above.
For orientation: Quantitative PCR measures a nucleic acid by following its amplification.

For data set [3], the system named is rats. The following applies: chronic oral administration; cited from earlier work.
Data set [4] relates to rats. The following applies: rat, in vivo, po; cited from earlier work.
Data set [5] relates to rats. To be noted: cited from earlier work.
The mark [6] stands for this setting: 100 μM test compound together with TNF-α and IFN-γ.
The mark [7] stands for this setting: positive control 10 μM together with TNF-α and IFN-γ.

Regarding `CCCCCCCCCCC=O` [undecanal], in data set [1] (100 μM test compound), the “expression of IL-4” value was “significantly reduced; also recorded: remarkably reduced”, the “expression of IL-13” value was “significantly reduced; also recorded: remarkably reduced” and the “expression of TNF-α” value is “significantly reduced; also recorded: remarkably reduced”. Moreover, in data set [2] (setting [6]), the “expression of IL-1β” value is “significantly reduced; also recorded: remarkably reduced”, the “expression of IL-6” value was “significantly reduced; also recorded: remarkably reduced” and the “expression of IL-8” value is “significantly reduced; also recorded: remarkably reduced”. Also, the “no-observed-adverse-effect level (NOAEL)” value with rats [3] is given as “about 1000 mg/kg bw”. The “LD50 (lethal dose, 50%)” value in the data set with rats [4] is listed as > 5,000 mg/kg bw/day.
For the compound `CCCCCCCCCCC` [undecane], in data set [1] (100 μM test compound), the “expression of IL-4” value is “significantly reduced; also recorded: remarkably reduced”, the “expression of IL-13” value is listed as “significantly reduced; also recorded: remarkably reduced” and the “expression of TNF-α” value is “significantly reduced; also recorded: remarkably reduced”. In addition, in data set [2] (setting [6]), the “expression of IL-1β” value is “significantly reduced; also recorded: remarkably reduced”, the “expression of IL-6” value is given as “significantly reduced; also recorded: remarkably reduced” and the “expression of IL-8” value is listed as “significantly reduced; also recorded: remarkably reduced”. Besides, in the data set on rats [5], the “LD50 (lethal dose, 50%) for inhalation toxicity” value is “about 442 ppm/8H”.
With `C=CC[C@@H]1/C=C(\C)C[C@H](C)C[C@H](OC)[C@H]2O[C@@](O)(C(=O)C(=O)N3CCCC[C@H]3C(=O)O[C@H](/C(C)=C/[C@@H]3CC[C@@H](O)[C@H](OC)C3)[C@H](C)[C@@H](O)CC1=O)[C@H](C)C[C@@H]2OC` [tacrolimus, reference compound], in data set [1] (positive control 10 μM), the “expression of IL-4” value is “significantly reduced”, the “expression of IL-13” value is on record as “significantly reduced” and the “expression of TNF-α” value is on record as “significantly reduced”. Also, in data set [2] (setting [7]), the “expression of IL-1β” value is “significantly reduced”, the “expression of IL-6” value is listed as “significantly reduced” and the “expression of IL-8” value is given as “significantly reduced”.
